Holding throughout (assay type): functional
The test system of experiment [1] is Staphylococcus aureus. The experiment is described as follows: Antibacterial activity against Staphylococcus aureus ATCC 25923 assessed as reduction in microbial growth after 18 hrs by microbroth dilution method. In general terms: Broth dilution looks for growth in wells or tubes with falling amounts of substance.
Experiment [2] concerns Candida albicans. The experiment is described as follows: Antifungal activity against Candida albicans ATCC 10231 assessed as reduction in microbial growth after 18 hrs by microbroth dilution method.
Experiment [3] concerns Escherichia coli. The experiment is described as follows: Antibacterial activity against Escherichia coli ATCC 35218 assessed as reduction in microbial growth after 18 hrs by microbroth dilution method.

A word on the MIC: it is the lowest concentration found to suppress growth. `CCCC1=C(C(=O)OC)C(=O)[C@@](C)(/C=C/C=C/[C@H](C)O)O1`: the MIC came to 2.9 µg/mL in experiment [1], 4.4 µg/mL in experiment [2] and 2.9 µg/mL in experiment [3].

As to `COC(=O)C1=C(c2ccsc2C)O[C@](C)(/C=C/CC[C@@H](C)O)C1=O`, the MIC in experiment [1] was found to be 3.5 µg/mL; in experiment [2] it was 7 µg/mL; in experiment [3], 3.5 µg/mL.

Consider `COC(=O)C1=C(C)O[C@](C)(/C=C/CC[C@@H](C)O)C1=O`, for which the figures for the MIC in experiment [1], in experiment [2] and in experiment [3] were 2.7 µg/mL, 5.4 µg/mL and 5.4 µg/mL, respectively.

Consider `CCCC1=C(C(=O)OC)C(=O)[C@@](C)(/C=C/CC[C@@H](C)O)O1`, for which the MIC in experiment [1] was found to be 3 µg/mL; in experiment [2], 5.9 µg/mL; in experiment [3], 3 µg/mL.

For the compound `CC/C=C/C=C/[C@@]1(C)OC(c2cc(C(=O)O)sc2C)=C(C(=O)OC)C1=O`, the MIC in experiment [1] is 1.9 µg/mL; in experiment [2], 3.8 µg/mL; in experiment [3] it was 0.9 µg/mL.

As to `COC(=O)C1=C(C)O[C@](C)(/C=C/CC[C@H](C)O)C1=O`, the MIC in experiment [1] was determined as 2.7 µg/mL; in experiment [2] it was 5.4 µg/mL; in experiment [3], 5.4 µg/mL.

For `COC(=O)C1=C(c2ccsc2C)O[C@](C)(/C=C/C=C/[C@H](C)O)C1=O`, the figures for the MIC in experiment [1], in experiment [2] and in experiment [3] were 3.5 µg/mL, 7 µg/mL and 7 µg/mL, respectively.

As for `CC/C=C/C=C/[C@@]1(C)OC(c2ccsc2C)=C(C(=O)OC)C1=O`, the MIC in experiment [1] worked out at 1.7 µg/mL; in experiment [2] it was 3.3 µg/mL; in experiment [3], 1.7 µg/mL.

For `CCCC1=C(C(=O)OC)C(=O)[C@@](C)(/C=C/C=C/[C@@H](C)O)O1`, the minimum inhibitory concentration (MIC) is 2.9 µg/mL in experiment [1], 4.4 µg/mL in experiment [2] and 2.9 µg/mL in experiment [3].

In the case of `COC(=O)C1=C(c2ccsc2C)O[C@](C)(/C=C/C=C/[C@@H](C)O)C1=O`, the results for the MIC in experiment [1], in experiment [2] and in experiment [3] were 3.5 µg/mL, 7 µg/mL and 7 µg/mL, respectively.

`COC(=O)C1=C(c2ccsc2C)O[C@](C)(/C=C/CC[C@H](C)O)C1=O`: the MIC in experiment [1] is 3.5 µg/mL; in experiment [2], 7 µg/mL; in experiment [3] it was 3.5 µg/mL.

As to `CCCC1=C(C(=O)OC)C(=O)[C@@](C)(/C=C/CC[C@H](C)O)O1`, the results for the MIC in experiment [1], in experiment [2] and in experiment [3] were 3 µg/mL, 5.9 µg/mL and 3 µg/mL, respectively.

Take `C[C@@H]1[C@H](O)[C@@H](C)/C=C/C=C/C=C/C=C/C=C/C=C/C=C/[C@H](O[C@@H]2O[C@H](C)[C@@H](O)[C@H](N)[C@@H]2O)C[C@@H]2O[C@](O)(C[C@@H](O)C[C@@H](O)[C@H](O)CC[C@@H](O)C[C@@H](O)CC(=O)O[C@H]1C)C[C@H](O)[C@H]2C(=O)O` [AMPHOTERICIN B]: the MIC in experiment [2] was found to be 0.1 µg/mL.

As to `CN[C@@H]1[C@H](O[C@H]2[C@H](O[C@H]3[C@H](O)[C@@H](O)[C@H](N=C(N)N)[C@@H](O)[C@@H]3N=C(N)N)O[C@@H](C)[C@]2(O)C=O)O[C@@H](CO)[C@H](O)[C@H]1O` [STREPTOMYCIN], the MIC in experiment [1] came to 0.1 µg/mL; in experiment [3], 2.3 µg/mL.

The record behind these values is ChEMBL document CHEMBL4673357, “Antimicrobial Furancarboxylic Acids from a Penicillium sp” (2020).
